Measured values reported in patent US20070060586A1, “Nitrooxyderivatives of antihypertensive drugs” (priority 2003, published 2007).
Counter-ions that a name gives are not always drawn.

Tested on: PC12 cells
Test: Measurements of cGMP in rat PC12 cell line (intracellular cGMP formation, enzyme immunoassay)
Assay type: cell-based
Conditions: for EC50: PC-12, 0.75 h
Procedure: Measurements of CGMP in Rat PC12 Cell Line.
cGMP contributes to the function and interaction of several vascular cell types and its dysfunction is involved in major cardiovascular diseases such as hypertension, diabetic complications, atherosclerosis, and tissue infarction. Therefore the extent of cGMP formation elicited by the compounds of the inventions was evaluated in the rat pheochromocytoma (PC12) cell line.
Cells were maintained at 37° C. in DMEM medium enriched with 10% horse serum and 5% foetal bovine serum under 5% CO2 atmosphere. At the time of experiments the cells were washed once with Hank's Balanced Salt Solution (HBSS) supplemented with 0.05% ascorbic acid and preincubated in the same buffer for 10 min in a floating water bath. After the preincubation step, cells were exposed for additional 45 min to either control conditions or increasing concentrations of test compounds ranging from 0.1 to 25 μM, in the presence of the phosphodiesterase inhibitor, IBMX (100 μM) and the NO-independent activator of soluble guanylyl cyclase, YC-1 (20 μM). The reaction was terminated by the removal of the incubating buffer and consecutive addition of 100 μl of absolute ethanol. The organic extracts were then evaporated to dryness and the residues dissolved in aqueous buffer for quantitative determination of intracellular cGMP levels using the cGMP enzyme immunoassay kit.
The obtained results reported in Table 1 are expressed as EC50 (μM) and efficacy Emax (% of vehicle). As shown in the table the nitroderivatives of timolol elicited consistent increase of intracellular cGMP formation in PC12 cell line.

[1] = 45 min exposure, 0.1 to 25 μM, in the presence of IBMX (100 μM) and YC-1 (20 μM)

Row | EC50 [1] | EC50, cGMP formation in PC12 cells [1] | SMILES | Emax (% of vehicle), cGMP formation in PC12 cells [1] | increase of intracellular cGMP formation in PC12 cell line (in words) (summary statement to Table 1)
1 | – | – | CC(C)(C)NCC(COc1nsnc1N1CCOCC1)OC(=O)c1ccc(CO[N+](=O)[O-])cc1.O=C(O)/C=C\C(=O)O [Compound of example 1, 4-(Nitrooxymethyl)benzoic acid (S)-1-[(1,1-dimethylethyl)amino]-3-[[4-(4-morpholinyl)-1,2,5thiadiazol-3-yl]oxy]-2-propanoate maleate salt] | 796 % of vehicle | –
2 | 18.5 µM | – | CC(C)(C)N(C[C@H](O)COc1nsnc1N1CCOCC1)C(=O)c1ccc(CO[N+](=O)[O-])cc1 [Compound of example 3, (S)-1-[(1,1-dimethylethyl)[(4-nitrooxymethyl)benzoyl]amino]-3-[[4-(4-morpholinyl)-1,2,5-thiadiazol-3-yl]oxy]-2-propanol] | 866 % of vehicle | –
3 | 12.6 µM | – | CC(C)(C)NC[C@@H](COc1nsnc1N1CCOCC1)OC(=O)c1ccc(CO[N+](=O)[O-])cc1 [Compound of example 1, 4-(Nitrooxymethyl)benzoic acid (S)-1-[(1,1-dimethylethyl)amino]-3-[[4-(4-morpholinyl)-1,2,5thiadiazol-3-yl]oxy]-2-propanoate maleate salt] | – | –
4 | – | Not effective | CC(C)(C)NC[C@H](O)COc1nsnc1N1CCOCC1 [Timolol, reference compound] | Not effective | this effect was not shared

Row | SMILES | EC50 [1] | EC50, cGMP formation in PC12 cells [1] | Emax (% of vehicle), cGMP formation in PC12 cells [1] | increase of intracellular cGMP formation in PC12 cell line (in words) (summary statement to Table 1)
5 | CC(C)(C)N(CC(COc1nsnc1N1CCOCC1)OC(=O)c1ccc(CO[N+](=O)[O-])cc1)C(=O)c1ccc(CO[N+](=O)[O-])cc1 [Compound of example 2, 4-(Nitrooxymethyl)benzoic acid (S)-1-[(1,1-dimethylethyl)[(4-nitrooxymethyl)benzoyl]amino]-3-[[4-(4-morpholinyl)-1,2,5-thiadiazol-3-yl]oxy]-2-propanoate] | 1.3 µM | – | 480 % of vehicle | –
